Literature values in patent US20140343076A1, “PHARMACEUTICAL COMPOSITIONS OF LURASIDONE” (Cadila Healthcare Limited, priority 2013, published 2014).
Structures can show the parent of a compound that is named as a salt.

In the case of O=C1[C@@H]2[C@H]3CC[C@H](C3)[C@@H]2C(=O)N1C[C@@H]1CCCC[C@H]1CN1CCN(c2nsc3ccccc23)CC1 [lurasidone, N-[4-[4-(1,2-benzisothiazol-3-yl)-1-piperazinyl]-(2R,3R)-2,3-tetramethylene-butyl]-(1′R,2′S,3′R,4′S)-2,3-bicyclo[2,2,1]heptanedicarboxyimide hydrochloride], the solubility in water is listed as “less than several”.
